Paper PMC5365662, “A Short Double-Stapled Peptide Inhibits Respiratory Syncytial Virus Entry and Spreading” (Antimicrobial Agents and Chemotherapy, 2017)
Bridge positions count the residues as written; N and C are the ends. Square brackets hold non-standard residues; d marks the D form. Peptide text beside a SMILES is read from it. R8 = C=CCCCCCC[C@@](C)(N)C(=O)O; S5 = C=CCCC[C@](C)(N)C(=O)O

Key:
[1] = test system: recombinant GFP-expressing RSV (strain A2) in A549 cells; type: cell-based, human respiratory syncytial virus; settings: A549 cells, eGFP RSV, GFP-positive cells by FACS 24 h p.i.
Procedure: A549 cells were infected with a recombinant green fluorescent protein (GFP)-expressing RSV (strain A2) ([23]), and the inhibitory activity of the peptide was quantified by flow cytometry.
Each peptide was diluted 3 times by 2-fold serial dilutions. eGFP RSV virus at an MOI of 0.5 was used for the infection, and GFP-positive cells were counted by FACS analysis 24 h p.i. The GFP data were normalized to the fluorescence values observed with virus only and plotted as percent inhibition.
Serial 4-fold dilutions of inhibitors were mixed with eGFP-encoding RSV virus ([23]) with a volume of virus required to achieve approximately 50% of infection in medium containing 2% fetal calf serum. The resulting mixture was added to 24-well plates containing A549 cells. Cells were incubated for 2 h at 37°C, the medium was replaced, and cells were incubated for an additional 24 h. Cells were treated with 300 μl of trypsin for 10 min at 37°C, and the detached cells were diluted in 1 ml of culture medium. Following centrifugation at 1,700 rpm, the pellet was resuspended in 300 μl of PBS–1% fetal bovine serum (FBS) (vol/vol) and GFP-positive cells were counted by fluorescence-activated cell sorter (FACS) analysis. The GFP data were normalized to the fluorescence value observed with virus only. The resulting inhibition curves were fitted in Igor Pro as described above.

[2] = target: 5HB, a recombinant protein containing 3 HR1 domains covalently attached to 2 HR2 domains; settings: competition with fluorescently labeled T108 probe (2 nM), 5HB 50 nM, 10 min preincubation + 30 min room temperature, duplicates
[3] = circular dichroism; settings: 10 mM phosphate; pH 7.5; 25 °C; 50 uM
[4] = Far-UV circular dichroism, α-helical content; type: physicochemical; settings: CD, indicator of α-helical stability
Procedure: The circular dichroism spectra were acquired on a Chirascan spectropolarimeter. The samples were prepared in 10 mM phosphate buffer, pH 7.5, at a peptide concentration of 50 μM. Data were recorded at 25°C by step scan from 180 nm to 260 nm in a 0.5-mm path length quartz cell using 1-nm wavelength increments and a response time of 1 s. The data were converted to per residue molar ellipticity units [θ] (degree per square centimeter per decimole per residue) and smoothed using the Igor Pro software. The percentage of helicity was calculated as described previously ([35]).

[5] = Proteolytic stability assay, chymotrypsin; type: in vitro ADME; settings: chymotrypsin (isolated protease); 10 μl peptide 0.29 mM in 990 μl 100 mM Tris-HCl pH 8.0, 10 mM CaCl2; 10 μl chymotrypsin 50 μg/ml; 25°C; LC-MS of intact peptide, exponential decay fit; 3 experiments
Procedure: (§1) This is an important parameter to assess for the development of peptide therapeutics. Peptides 4bb, 4ca, and 4a, and the unstapled analog peptide 4, as well as both SAH-RSVFBD isomers, were treated with chymotrypsin or trypsin, and the samples were analyzed by LC/MS to quantify the reaction products over time. […] In comparison, both SAH-RSVFBD isomers were more susceptible to proteolytic degradation, with half-lives of approximately 7 h and 5 min against chymotrypsin and trypsin, respectively.
(§2) In vitro proteolytic degradation was measured via LC-MS using an Agilent Infinity 1280 UHPLC system coupled to an Agilent quadrupole time of flight (QTOF) 6530 instrument with an Agilent Jet Stream electrospray ionization (AJS ESI) source (all from Agilent Technologies, Waldbronn, Germany). Five microliters of digested sample was injected onto a C18 column (Zorbax Eclipse Plus RRHD, 1.8 μm, 2.1 by 100 mm; Agilent Technologies, Waldbronn, Germany) equilibrated with solvent A (5% acetonitrile, 0.2% formic acid) and eluted with a flow rate of 0.4 ml/min over a 5 to 95% gradient of solvent B (95% acetonitrile, 0.2% formic acid) in 5 min, followed by 1.5 min at 95% and 0.5 min posttime. The AJS ESI source was operated with a capillary voltage of 4,000 V and a nozzle voltage of 600 V with a drying gas temperature of 325°C and flow rate of 10 liters/min, nebulizing gas pressure of 20 lb/in^2, and a sheath gas temperature of 300°C and flow rate of 11 liters/min. Mass spectra were acquired in the positive-ion mode from 100 to 3,200 m/z at a rate of 1 scan per second in extended dynamic range (2 GHz) mode. The fragmentor, skimmer, and octopole RF voltages were set to 200, 60, and 750 V, respectively. Data were acquired and analyzed with the Agilent MassHunter Workstation (version B.05).
(§3) Peptide digestion was performed as follows: 10 μl of peptide at 0.29 mM in 50:50 acetonitrile-water was dissolved in 990 μl 100 mM Tris-HCl (pH 8.0) with 10 mM CaCl2. Following measurement of the undigested (t0) sample, 10 μl of chymotrypsin at 50 μg/ml in 100 mM Tris-HCl (pH 8.0) with 10 mM CaCl2 was added, and the sample was vortexed and placed immediately in the autosampler, set to 25°C. The level of intact peptide was quantified by serial injection over time. Integration of the intact peptide compound chromatogram was performed using the Agilent Molecular Feature Extraction (MFE) algorithm. The value of the fit at t = 0 min was used to calculate the percentage of the intact peptide at each point as follows: Percent intact (t) = [Vol (t)/Volt0] × 100, where Vol is the total volume calculated using Find Compounds by Molecular Feature and Volt0 is the value of the fit at time t = 0. A plot of the intact peptide MFE peak area over time gave an exponential decay curve, from which the half-life was determined using MatLab […].

[6] = Proteolytic stability assay, trypsin; type: in vitro ADME; settings: trypsin (isolated protease); 100 mM Tris-HCl pH 8.0, 10 mM CaCl2, 25°C; LC-MS of intact peptide, exponential decay fit; 3 experiments
Procedure: as §1, §2
as §3, with “Integration of the intact peptide compound chromatogram was performed using the Agilent Molecular Feature Extraction (MFE) algorithm.” left out

Structure (SMILES) | inhibition of RSV-eGFP infection (in words) [1] | Kd [2] | helicity [3] | θ208/θ222 molar ellipticity ratio [4] | half-life at 2.9 µM [5] | half-life [6]
CC[C@H](C)[C@H](NC(=O)[C@H](CCCCN)NC(=O)[C@H](CCC(=O)O)NC(=O)[C@H](CC(N)=O)NC(=O)[C@@H](NC(=O)[C@H](CCC(N)=O)NC(=O)[C@]1(C)CCCC=CCCCCCC[C@@](C)(NC(=O)[C@H](CO)NC(=O)[C@@H]2CCCN2C(=O)[C@H](Cc2ccccc2)NC(=O)[C@H](CCC(=O)O)NC(C)=O)C(=O)N[C@@H](CCC(=O)O)C(=O)N[C@@H](Cc2ccccc2)C(=O)N[C@@H](CC(=O)O)C(=O)N[C@@H](C)C(=O)N[C@@H](CO)C(=O)N[C@@H]([C@@H](C)CC)C(=O)N1)C(C)C)C(=O)N[C@@H](CC(N)=O)C(N)=O [Peptide 1a] (Ac-EFPS[R8]EFDASI[S5]QVNEKIN-NH2; staple 5-12) | none | 9.8 ± 1.5 µM | 14.2% | – | – | –
CC[C@H](C)[C@H](NC(=O)[C@H](CCCCN)NC(=O)[C@]1(C)CCCC=CCCC[C@](C)(NC(=O)[C@@H](NC(=O)[C@H](CO)NC(=O)[C@]2(C)CCCC=CCCC[C@](C)(NC(=O)[C@H](CO)NC(=O)[C@@H]3CCCN3C(=O)[C@H](Cc3ccccc3)NC(=O)[C@H](CCC(=O)O)NC(C)=O)C(=O)N[C@@H](CCC(=O)O)C(=O)N[C@@H](Cc3ccccc3)C(=O)N[C@@H](CC(=O)O)C(=O)N2)[C@@H](C)CC)C(=O)N[C@@H](CCC(N)=O)C(=O)N[C@@H](C(C)C)C(=O)N[C@@H](CC(N)=O)C(=O)N1)C(=O)N[C@@H](CC(N)=O)C(N)=O [Peptide 1eg] (Ac-EFPS[S5]EFD[S5]SI[S5]QVN[S5]KIN-NH2; staple 5-9, 12-16) | – | 24 ± 4 µM | 35.3% | ~1 | – | –
CC[C@H](C)[C@@H]1NC(=O)[C@H](Cc2ccccc2)NC(=O)[C@H](C)NC(=O)[C@H](CC(C)C)NC(=O)[C@H](CO)NC(=O)[C@](C)(NC(=O)[C@H](CCC(=O)O)NC(C)=O)CCCCCCC=CCCC[C@@](C)(C(=O)N[C@@H](CO)C(=O)N[C@@H](CC(=O)O)C(=O)N[C@@H](CCC(=O)O)C(=O)N[C@@H](CC(C)C)C(=O)N[C@@H](CC(C)C)C(=O)N[C@@H](Cc2c[nH]cn2)C(=O)N[C@@H](CC(N)=O)C(=O)N[C@H](C(N)=O)C(C)C)NC(=O)[C@H](CCCNC(=N)N)NC1=O [Peptide 3d] (Ac-E[R8]SLAFIR[S5]SDELLHNV-NH2; staple 2-9) | none | 3.2 ± 2.7 µM | 24.4% | – | – | –
CC[C@H](C)[C@H](NC(=O)[C@H](CCCCN)NC(=O)[C@H](CCC(=O)O)NC(=O)[C@H](CC(N)=O)NC(=O)[C@@H](NC(=O)[C@H](CCC(N)=O)NC(=O)[C@H](CO)NC(=O)[C@@H](NC(=O)[C@H](CO)NC(=O)[C@H](C)NC(=O)[C@]1(C)CCCC=CCCC[C@](C)(NC(=O)[C@@H]2CCCN2C(=O)[C@H](Cc2ccccc2)NC(=O)[C@H](CCC(=O)O)NC(C)=O)C(=O)N[C@@H](CC(=O)O)C(=O)N[C@@H](CCC(=O)O)C(=O)N[C@@H](Cc2ccccc2)C(=O)N1)[C@@H](C)CC)C(C)C)C(=O)N[C@@H](CC(N)=O)C(N)=O [Peptide 1d] (Ac-EFP[S5]DEF[S5]ASISQVNEKIN-NH2; staple 4-8) | none | 8 ± 4 µM | 34.3% | – | – | –
CC[C@H](C)[C@@H]1NC(=O)[C@H](CO)NC(=O)[C@](C)(NC(=O)[C@H](CC(=O)O)NC(=O)[C@H](Cc2ccccc2)NC(C)=O)CCCCCCC=CCCC[C@@](C)(C(=O)N[C@@H](CCCCN)C(=O)N[C@H](C(=O)N[C@@H](CC(N)=O)C(=O)N[C@@H](CCC(N)=O)C(=O)N[C@@H](CO)C(=O)N[C@@H](CC(C)C)C(=O)N[C@@H](C)C(=O)N[C@@H](Cc2ccccc2)C(=O)N[C@H](C(=O)N[C@]2(C)CCCCCCC=CCCC[C@@](C)(C(=O)N[C@@H](CC(N)=O)C(=O)N[C@H](C(=O)N[C@@H](CC(N)=O)C(=O)N[C@@H](C)C(=O)NCC(=O)N[C@@H](CCCCN)C(=O)N[C@@H](CO)C(=O)N[C@H](C(N)=O)[C@@H](C)O)C(C)C)NC(=O)[C@H](CC(C)C)NC(=O)[C@H](CC(C)C)NC(=O)[C@H](CCC(=O)O)NC(=O)[C@H](CC(=O)O)NC(=O)[C@H](CO)NC(=O)[C@H](CCCCN)NC2=O)[C@@H](C)CC)[C@@H](C)CC)NC(=O)[C@H](CC(N)=O)NC(=O)[C@H](C(C)C)NC(=O)[C@H](CCC(N)=O)NC(=O)[C@H](CO)NC1=O [RSV-SAHBD (E), reference compound] | – | – | – | – | 6.5 h | 1.2 min
CC[C@H](C)[C@H](NC(=O)[C@H](CCCCN)NC(=O)[C@H](CCC(=O)O)NC(=O)[C@H](CC(N)=O)NC(=O)[C@@H](NC(=O)[C@]1(C)CCCC=CCCC[C@](C)(NC(=O)[C@H](CC(=O)O)NC(=O)[C@H](Cc2ccccc2)NC(=O)[C@H](CCC(=O)O)NC(=O)[C@H](CC(=O)O)NC(=O)[C@H](CO)NC(=O)[C@@H]2CCCN2C(=O)[C@H](Cc2ccccc2)NC(=O)[C@H](CCC(=O)O)NC(C)=O)C(=O)N[C@@H](CO)C(=O)N[C@@H]([C@@H](C)CC)C(=O)N[C@@H](CO)C(=O)N1)C(C)C)C(=O)N[C@@H](CC(N)=O)C(N)=O [Peptide 1f] (Ac-EFPSDEFD[S5]SIS[S5]VNEKIN-NH2; staple 9-13) | none | 7.4 ± 1.3 µM | 35.2% | – | – | –
